Measurements from patent publication US5391540A, “Substituted pyridine compounds” (Rohm and Haas Company, priority 1993, dated 1995).
Where “and” joins values, the source holds several entries; their conditions need not be identical. Identical values can stand only once.

Assays:
Format in all cases: in vivo
Rhizome Johnsongrass = assay: Pre-emergent herbicidal activity (Table A); conditions: Sorghum halepense, pre-emergence, Rhjg, 11.2 kg/ha, 10-14 days, read-out: herbicidal rating (% inhibition)
Method in brief: (§1)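 Seeds or vegetative propagules were set on topsoil compacted to 0.95 to 1.27 cm below the pan rim, then covered with soil thoroughly mixed with a known amount of test compound in acetone or water carrier. Ratings follow a scale of percent inhibition per species.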

Common Lambsquarters = assay: Pre-emergent herbicidal activity (Table A); conditions: Chenopodium album, pre-emergence, Colq, 11.2 kg/ha, 10-14 days, read-out: herbicidal rating (% inhibition)
Method in brief: as §1

Quackgrass = assay: Pre-emergent herbicidal activity (Table A); conditions: pre-emergence, Rhqg, 11.2 kg/ha, 10-14 days, read-out: herbicidal rating (% inhibition)
Method in brief: as §1

Pennsylvania Smartweed = assay: Pre-emergent herbicidal activity (Table A); conditions: pre-emergence, Pesw, 11.2 kg/ha, 10-14 days, read-out: herbicidal rating (% inhibition)
Method in brief: as §1

Canada thistle = assay: Pre-emergent herbicidal activity (Table A); conditions: Cirsium arvense, pre-emergence, Cath, 11.2 kg/ha, 10-14 days, read-out: herbicidal rating (% inhibition)
Method in brief: as §1

Colq = assay: plant injury after spraying emerged plants (Table D); set-up: scale not given here
Method in brief: (§2)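 Greenhouse post-emergence test: plants grown in silt loam (some with fertilizer) to 1–3 true leaf stage (9–14 days), sprayed at 170.3 kPa with emulsifier-containing solution at 1870 L/Ha delivering stated rates. Injury versus unsprayed controls scored after ~10–14 days (usually 11).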

Pesw = assay: as above; set-up: scale not given here
Method in brief: as §2

Sube = assay: as above; set-up: scale not given here
Method in brief: as §2

Cocw = assay: as above; set-up: scale not given here
Method in brief: as §2

Compound	inhibition at 11200 g/ha (Rhizome Johnsongrass) [%]	inhibition at 11200 g/ha (Common Lambsquarters) [%]	inhibition at 11200 g/ha (Quackgrass) [%]	inhibition at 11200 g/ha (Pennsylvania Smartweed) [%]	inhibition at 11200 g/ha (Canada thistle) [%]	plant injury rating, Cocw (Cocw; 0.2803 kg/ha)	plant injury rating, Cocw (Cocw; 1.1210 kg/ha)	plant injury rating, Cocw (Cocw; 5.6050 kg/ha)	also measured
COC(=O)c1c(OC)nc(C(F)(F)F)c(N=CSC)c1CC(C)C [Compound 77, 3-pyridinecarboxylic acid, 2-methoxy-4-(2-methylpropyl)-5-[[(methylthio)methylene]amino]-6-(trifluoromethyl)-, methyl ester]	75 to 100	75 to 100	75 to 100	75 to 100	75 to 100	–	–	–	plant injury rating, Colq (Colq; 1.1210 kg/ha): 3 and 2; plant injury rating, Colq (Colq; 2.8025 kg/ha): 3 and 2; plant injury rating, Colq (Colq; 5.6050 kg/ha): 2 and 3; plant injury rating, Colq (Colq; 11.2100 kg/ha): 2 and 3; plant injury rating, Pesw (Pesw; 1.1210 kg/ha): 0; plant injury rating, Pesw (Pesw; 2.8025 kg/ha): 0; plant injury rating, Pesw (Pesw; 5.6050 kg/ha): 0; plant injury rating, Pesw (Pesw; 11.2100 kg/ha): 2 and 1; plant injury rating, Sube (Sube; 1.1210 kg/ha): 1; plant injury rating, Sube (Sube; 2.8025 kg/ha): 2; plant injury rating, Sube (Sube; 5.6050 kg/ha): 2 and 1; plant injury rating, Sube (Sube; 11.2100 kg/ha): 2
COC(=O)c1c(O)nc(C(F)(F)F)c(C(=O)OC)c1CC(C)C [Compound 1, 3,5-pyridinedicarboxylic acid, 2-hydroxy-4-(2-methylpropyl)-6-(trifluoromethyl)-, dimethyl ester]	0 to 24	0 to 24	0 to 24	0 to 24	0 to 24	–	–	–	–
COC(=O)c1c(OC)nc(C(F)(F)F)c(C(=O)n2cccn2)c1CC1CC1 [Compound 116, 3-pyridinecarboxylic acid, 4-(cyclopropylmethyl)-2-methoxy-5-(1H-pyrazo1-1-ylcarbonyl)-6-(trifluoromethyl)-, methyl ester]	–	–	–	–	–	1	2	2	plant injury rating, Cocw (Cocw; 0.0701 kg/ha): 0
COC(=O)c1c(OC)nc(C(F)(F)F)c(C(=O)n2ccc(F)n2)c1C1CCC1 [Compound 140, 3-pyridinecarboxylic acid, 4-cyclobuty1-5-[(3-fluoro-1H-pyrazo1-1-yl)carbonyl]-2-methoxy-6-(trifluoromethyl)-, methyl ester]	–	–	–	–	–	2	2	3	–
COC(=O)c1c(OC)nc(C(F)(F)F)c(C(=O)SC)c1C1CCC1 [Compound 137, 3-pyridinecarboxylic acid, 4-cyclobuty1-2-methoxy-5-[(methylthio)carbonyl]-6-(trifluoromethyl)-, methyl ester]	–	–	–	–	–	2	3	3	–
COC(=O)c1c(OC)nc(C(F)(F)F)c(C(=O)Cl)c1CC1CC1 [Compound 113, 3-pyridinecarboxylic acid, 5-(chlorocarbonyl)-4-(cyclopropylmethyl)-2-methoxy-6-(trifluoromethyl)-, methyl ester]	–	–	–	–	–	0	–	0	–
COC(=O)c1c(OC)nc(C(F)(F)F)c(C2=NCCS2)c1CC(C)C [Compound 50, 3-pyridinecarboxylic acid, 5-(4,5-dihydro-2-thiazolyl)-2-methoxy-4-(2-methylpropyl)-6-(trifluoromethyl)-, methyl ester]	75 to 100	75 to 100	75 to 100	75 to 100	75 to 100	–	–	–	–
COC(=O)c1c(OC)nc(C(F)(F)Cl)c(C(=O)OC)c1CC(C)C [Compound 30, 3,5-pyridinedicarboxylic acid, 2-(chlorodifluoromethyl)-6-methoxy-4-(2-methylpropyl)-, dimethyl ester]	75 to 100	75 to 100	75 to 100	75 to 100	75 to 100	–	–	–	plant injury rating, Colq (Colq; 0.5605 kg/ha): 0; plant injury rating, Colq (Colq; 1.1210 kg/ha): 0; plant injury rating, Colq (Colq; 2.8025 kg/ha): 1; plant injury rating, Colq (Colq; 5.6050 kg/ha): 1; plant injury rating, Colq (Colq; 8.4075 kg/ha): 1; plant injury rating, Colq (Colq; 11.2100 kg/ha): 2; plant injury rating, Pesw (Pesw; 0.5605 kg/ha): 0; plant injury rating, Pesw (Pesw; 1.1210 kg/ha): 0; plant injury rating, Pesw (Pesw; 2.8025 kg/ha): 1; plant injury rating, Pesw (Pesw; 5.6050 kg/ha): 1; plant injury rating, Pesw (Pesw; 8.4075 kg/ha): 1; plant injury rating, Pesw (Pesw; 11.2100 kg/ha): 1; plant injury rating, Sube (Sube; 0.5605 kg/ha): 0; plant injury rating, Sube (Sube; 1.1210 kg/ha): 1; plant injury rating, Sube (Sube; 2.8025 kg/ha): 1; plant injury rating, Sube (Sube; 5.6050 kg/ha): 1; plant injury rating, Sube (Sube; 8.4075 kg/ha): 1; plant injury rating, Sube (Sube; 11.2100 kg/ha): 1
